# Test results as given in US20100305143A1, “PYRROLOPYRIMIDINE COMPOUNDS” (VERNALIS (R & D) LTD., priority 2007, published 2010).
# Target: T1, human adenosine A2B receptors (Homo sapiens, UniProt P29275)
# T1 construct: expressed in transfected cells
# T1 sequence (P29275 1-332): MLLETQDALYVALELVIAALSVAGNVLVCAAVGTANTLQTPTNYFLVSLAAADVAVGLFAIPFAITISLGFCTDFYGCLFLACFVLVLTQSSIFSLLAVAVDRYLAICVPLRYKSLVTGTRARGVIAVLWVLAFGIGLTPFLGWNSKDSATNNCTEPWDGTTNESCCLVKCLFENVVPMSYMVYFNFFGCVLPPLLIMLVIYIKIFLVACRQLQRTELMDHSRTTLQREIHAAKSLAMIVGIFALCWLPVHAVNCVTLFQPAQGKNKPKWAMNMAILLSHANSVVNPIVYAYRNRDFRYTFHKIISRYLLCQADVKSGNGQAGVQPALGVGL
# Assay: FLIPR calcium flux assay in cells expressing human adenosine A2B receptors
# Format: cell-based
# Settings: expressed human adenosine A2B receptors in mammalian cell lines, from dose response curves, read-out: Activity (IC50 activity range)
# Protocol: The use of a Fluorometric Imaging Plate Reader (FLIPR) to measure calcium flux in Adenosine-receptor expressing cells is a well-established technique. In this assay calcium flux is triggered by receptor activation and measured through the fluorescence of an incorporated calcium-sensitive dye. The potencies shown were determined using expressed human adenosine A2B receptors in mammalian cell lines. Selectivity values were obtained by using mammalian cell lines expressing the human adenosine A1, A2A and A3 receptors. Compound potency was determined from dose response curves and are reported as IC50 values.
row,IC50,Structure (SMILES)
1,> 500 nM,"Cn1cc(Br)c2c(C(=O)c3cccs3)nc(NCc3cccnc3)nc21 [Example 25, {5-Bromo-7-methyl-2-[(pyridin-3-ylmethyl)-amino]-7H-pyrrolo[2,3-d]pyrimidin-4-yl}-thiophen-2-yl-methanone]"
2,> 500 nM,"Cn1cc(-c2ccccc2)c2c(C(=O)c3cccs3)nc(NCc3cccnc3)nc21 [Example 26, {7-Methyl-5-phenyl-2-[(pyridin-3-ylmethyl)-amino]-7H-pyrrolo[2,3-d]pyrimidin-4-yl}-thiophen-2-yl-methanone]"
3,> 500 nM,"Cn1cc(-c2ccc(S(C)(=O)=O)cc2)c2c(C(=O)c3cccs3)nc(NCc3cccnc3)nc21 [Example 27, {5-(4-Methanesulfonyl-phenyl)-7-methyl-2-[(pyridin-3-ylmethyl)-amino]-7H-pyrrolo[2,3-d]pyrimidin-4-yl}-thiophen-2-yl-methanone]"
4,> 500 nM,"COc1ccc(-c2cn(C)c3nc(NCc4cccnc4)nc(C(=O)c4cccs4)c23)cc1 [Example 28, {5-(4-Methoxy-phenyl)-7-methyl-2-[(pyridin-3-ylmethyl)-amino]-7H-pyrrolo[2,3-d]pyrimidin-4-yl}-thiophen-2-yl-methanone]"
5,> 500 nM,"COc1ccccc1-c1cn(C)c2nc(NCc3cccnc3)nc(C(=O)c3cccs3)c12 [Example 29, {5-(2-Methoxy-phenyl)-7-methyl-2-[(pyridin-3-ylmethyl)-amino]-7H-pyrrolo[2,3-d]pyrimidin-4-yl}-thiophen-2-yl-methanone]"
6,< 500 nM,"Cn1c(Br)cc2c(C(=O)c3cccs3)nc(Cl)nc21 [Example 35, (6-Bromo-2-chloro-7-methyl-7H-pyrrolo[2,3-d]pyrimidin-4-yl)-thiophen-2-yl-methanone]"
7,< 500 nM,"Cn1c(Cl)cc2c(C(=O)c3cccs3)nc(Cl)nc21 [Example 39, (2,6-Dichloro-7-methyl-7H-pyrrolo[2,3-d]pyrimidin-4-yl)-thiophen-2-yl-methanone]"
8,> 500 nM,"Cn1c(Cl)cc2c(C(=O)c3cccs3)nc(NCc3cccnc3)nc21 [Example 40, {6-Chloro-7-methyl-2-[(pyridin-3-ylmethyl)-amino]-7H-pyrrolo[2,3-d]pyrimidin-4-yl}-thiophen-2-yl-methanone]"

# More lines, now with the values behind:
row,Structure (SMILES),IC50
1,"Cn1ccc2c(C(=O)c3cccs3)nc(NCc3cccnc3)nc21 [Example 6, {7-Methyl-2-[(pyridin-3-ylmethyl)-amino]-7H-pyrrolo[2,3d]pyrimidin-4-yl}-thiophen-2-yl-methanone]",< 500 nM
2,"CC(Nc1nc(C(=O)c2cccs2)c2ccn(C)c2n1)c1cccnc1 (centres unmarked) [Example 7, [7-Methyl-2-(1-pyridin-3-yl-ethylamino)-7H-pyrrolo[2,3-d]pyrimidin-4-yl]-thiophen-2-yl-methanone]",< 500 nM
3,"Cc1ccc(C(=O)c2nc(NCc3cccnc3)nc3c2ccn3C)s1 [Example 8, {7-Methyl-2-[(pyridin-3-ylmethyl)-amino]-7H-pyrrolo[2,3-d]pyrimidin-4-yl}-(5-methyl-thiophen-2-yl)-methanone]",< 500 nM
4,"Cc1ccc(C(=O)c2nc(NCc3ccccn3)nc3c2ccn3C)s1 [Example 9, {7-Methyl-2-[(pyridin-2-ylmethyl)-amino]-7H-pyrrolo[2,3-d]pyrimidin-4-yl}-(5-methyl-thiophen-2-yl)-methanone]",< 500 nM
5,"Cc1ccc(C(=O)c2nc(NCc3ccncc3)nc3c2ccn3C)s1 [Example 10, {7-Methyl-2-[(pyridin-4-ylmethyl)-amino]-7H-pyrrolo[2,3-d]pyrimidin-4-yl}-(5-methyl-thiophen-2-yl)-methanone]",> 500 nM
6,"O=C(c1cccs1)c1nc(Cl)nc2[nH]ccc12 [Example 13, (2-Chloro-7H-pyrrolo[2,3-d]pyrimidin-4-yl)-thiophen-2-yl-methanone]",> 500 nM
7,"O=C(c1cccs1)c1nc(NCc2ccccn2)nc2[nH]ccc12 [Example 14, {2-[(Pyridin-2-ylmethyl)-amino]-7H-pyrrolo[2,3-d]pyrimidin-4-yl}-thiophen-2-yl-methanone]",> 500 nM
8,"O=C(c1cccs1)c1nc(Cl)nc2c1ccn2Cc1ccccc1 [Example 17, (7-Benzyl-2-chloro-7H-pyrrolo[2,3-d]pyrimidin-4-yl)-thiophen-2-yl-methanone]",> 500 nM
9,"O=C(c1cccs1)c1nc(NCc2cccnc2)nc2c1ccn2Cc1ccccc1 [Example 18, {7-Benzyl-2-[(pyridin-3-ylmethyl)-amino]-7H-pyrrolo[2,3-d]pyrimidin-4-yl}-thiophen-2-yl-methanone]",> 500 nM
10,"CCCCCn1ccc2c(C(=O)c3cccs3)nc(NCc3cccnc3)nc21 [Example 19, {7-Pentyl-2-[(pyridin-3-ylmethyl)-amino]-7H-pyrrolo[2,3-d]pyrimidin-4-yl}-thiophen-2-yl-methanone]",> 500 nM
11,"O=C(c1cccs1)c1nc(NCc2cccnc2)nc2c1ccn2CC1CC1 [Example 20, {7-Cyclopropylmethyl-2-[(pyridin-3-ylmethyl)-amino]-7H-pyrrolo[2,3-d]pyrimidin-4-yl}-thiophen-2-yl-methanone]",> 500 nM
12,"CCCn1ccc2c(C(=O)c3cccs3)nc(NCc3cccnc3)nc21 [Example 21, {7-Propyl-2-[(pyridin-3-ylmethyl)-amino]-7H-pyrrolo[2,3-d]pyrimidin-4-yl}-thiophen-2-yl-methanone]",> 500 nM
